Converted amounts (≈) assume the structure as drawn.
Tests used:
HepG2 cells = assay: Drug toxicity to HepG2 cells (MTT); format: cell-based; settings: HepG2 cells, 48 hours incubation, MTT
[1] = Human plasma protein binding (equilibrium dialysis); format: in vitro ADME; settings: 10 µM, 37 °C
[2] = Log D7.4 shake-flask octanol-water; format: physicochemical; settings: pH 7.4
adult S. mansoni = assay: Phenotypic screen of adult S. mansoni worms, severity scores and descriptors; format: cell-based, Schistosoma mansoni; settings: adult S. mansoni; for Descriptors (10 µM) 1 h / Descriptors (10 µM) 5 h / Descriptors (10 µM) 24 h / Descriptors (10 µM) 48 h: phenotypic descriptors; for Severity Scores (10 μM) 1 h / Severity Scores (10 μM) 5 h / Severity Scores (10 μM) 24 h / Severity Scores (10 μM) 48 h: scale 0 (no activity) to 4 (maximal activity)
Outline: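 Adult S. mansoni (NMRI isolate, ≥42 days old) were co-incubated with compounds and changes in motility, density, shape and adherence recorded visually over time and concentration. Descriptors converted to severity scores from 0 (no activity) to 4 (maximal).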

[3] = Aqueous pH 7.4 solubility; format: physicochemical; settings: phosphate buffer pH 7.4, 25 °C, 20-24 h; read-out: aq sol (aqueous solubility)
[4] = Human liver microsomal Clint; format: in vitro ADME; settings: human liver microsomes, intrinsic clearance
Rat hepatocyte Clint = format: in vitro ADME; settings: rat hepatocytes, intrinsic clearance

Row | SMILES | human PPB (plasma protein binding) [1] [%] | LogD 7.4 [2] | solubility [3] [µM] | HLM Clint [4] [μL/min/mg protein] | RH CLint (Rat hepatocyte Clint) [µL/min/10^6 cells] | HepG2 TC50 (HepG2 cells) [µM] | Descriptors (10 µM) 1 h (adult S. mansoni) | Severity Scores (10 μM) 1 h (adult S. mansoni) | Descriptors (10 µM) 5 h (adult S. mansoni) | Severity Scores (10 μM) 5 h (adult S. mansoni) | Descriptors (10 µM) 24 h (adult S. mansoni) | Severity Scores (10 μM) 24 h (adult S. mansoni) | Descriptors (10 µM) 48 h (adult S. mansoni) | Severity Scores (10 μM) 48 h (adult S. mansoni)
1 | O=S(=O)(c1ccc(-c2ccc3nccc(Nc4ccncn4)c3c2)cc1)N1CCOCC1 [S3a] | 96 | 3.3 | 1.4 (≈ 0.627 µg/mL) | 210 | 32 | > 34 | none | 0 | none | 0 | none | 0 | none | 0
2 | CS(=O)(=O)N1CCN(c2ncc(-c3ccc4c(Nc5cnccn5)ccnc4c3)cn2)CC1 [S2a] | 96 | 3.1 | 0.06 (≈ 0.0278 µg/mL) | 44 | 28 | > 33 | none | 0 | none | 0 | none | 0 | none | 0
3 | O=S(=O)(c1ccc(-c2ccc3nccc(N[C@@H]4CCCC[C@H]4O)c3c2)cc1)N1CCOCC1 (relative stereo) [S3d] | 72 | 2.4 | 140 (≈ 65.5 µg/mL) | 43 | 30 | 32 | none | 0 | none | 0 | none | 0 | none | 0
4 | c1cnc(Nc2ccnc3cc(-c4cnc(N5CCOCC5)nc4)ccc23)cn1 [S2d] | 96 | 3.7 | 0.7 (≈ 0.27 µg/mL) | > 300 | 93 | 39 | Shrunk, S | 2 |  | 1 | none | 0 | none | 0

Now from value to compound, other results behind:

Row | human PPB (plasma protein binding) [1] [%] | LogD 7.4 [2] | solubility [3] [µM] | HLM Clint [4] [μL/min/mg protein] | RH CLint (Rat hepatocyte Clint) [µL/min/10^6 cells] | SMILES | HepG2 TC50 (HepG2 cells) [µM] | Descriptors (10 µM) 1 h (adult S. mansoni) | Severity Scores (10 μM) 1 h (adult S. mansoni) | Descriptors (10 µM) 5 h (adult S. mansoni) | Severity Scores (10 μM) 5 h (adult S. mansoni) | Descriptors (10 µM) 24 h (adult S. mansoni) | Severity Scores (10 μM) 24 h (adult S. mansoni) | Descriptors (10 µM) 48 h (adult S. mansoni) | Severity Scores (10 μM) 48 h (adult S. mansoni)
5 | 81 | 2.5 | 990 (≈ 408 µg/mL) | 48 | 12 | CN1CCCN(c2ncc(-c3ccc4nccc(Nc5cnccn5)c4c3)cn2)CC1 [S3i] | > 37 | none | 0 | none | 0 | none | 0 |  | 
6 | 61 | 2.2 | 910 (≈ 375 µg/mL) | 87 | 19 | CN1CCCN(c2ncc(-c3ccc4nccc(Nc5ccncn5)c4c3)cn2)CC1 [S3j] | > 37 | none | 0 | none | 0 | none | 0 |  | 
